Laboratory results reported in patent US20250034216A1, “STEREOSELECTIVE COVALENT LIGANDS FOR ONCOGENIC AND IMMUNOLOGICAL PROTEINS” (The Scripps Research Institute, priority 2021, published 2025).

Legend:
Experiment in all cases: IA-DTB cysteine engagement
Type in all cases: binding
Conditions in all cases: 22Rv1 cells, 20 μM probe, 1 h, relative to DMSO
CLUH_C333 = biological target: T1, CLUH_C333 (Homo sapiens, UniProt O75153)
T1 construct: endogenous in cells; host or cells: 22Rv1
T1 sequence (O75153 1-1309): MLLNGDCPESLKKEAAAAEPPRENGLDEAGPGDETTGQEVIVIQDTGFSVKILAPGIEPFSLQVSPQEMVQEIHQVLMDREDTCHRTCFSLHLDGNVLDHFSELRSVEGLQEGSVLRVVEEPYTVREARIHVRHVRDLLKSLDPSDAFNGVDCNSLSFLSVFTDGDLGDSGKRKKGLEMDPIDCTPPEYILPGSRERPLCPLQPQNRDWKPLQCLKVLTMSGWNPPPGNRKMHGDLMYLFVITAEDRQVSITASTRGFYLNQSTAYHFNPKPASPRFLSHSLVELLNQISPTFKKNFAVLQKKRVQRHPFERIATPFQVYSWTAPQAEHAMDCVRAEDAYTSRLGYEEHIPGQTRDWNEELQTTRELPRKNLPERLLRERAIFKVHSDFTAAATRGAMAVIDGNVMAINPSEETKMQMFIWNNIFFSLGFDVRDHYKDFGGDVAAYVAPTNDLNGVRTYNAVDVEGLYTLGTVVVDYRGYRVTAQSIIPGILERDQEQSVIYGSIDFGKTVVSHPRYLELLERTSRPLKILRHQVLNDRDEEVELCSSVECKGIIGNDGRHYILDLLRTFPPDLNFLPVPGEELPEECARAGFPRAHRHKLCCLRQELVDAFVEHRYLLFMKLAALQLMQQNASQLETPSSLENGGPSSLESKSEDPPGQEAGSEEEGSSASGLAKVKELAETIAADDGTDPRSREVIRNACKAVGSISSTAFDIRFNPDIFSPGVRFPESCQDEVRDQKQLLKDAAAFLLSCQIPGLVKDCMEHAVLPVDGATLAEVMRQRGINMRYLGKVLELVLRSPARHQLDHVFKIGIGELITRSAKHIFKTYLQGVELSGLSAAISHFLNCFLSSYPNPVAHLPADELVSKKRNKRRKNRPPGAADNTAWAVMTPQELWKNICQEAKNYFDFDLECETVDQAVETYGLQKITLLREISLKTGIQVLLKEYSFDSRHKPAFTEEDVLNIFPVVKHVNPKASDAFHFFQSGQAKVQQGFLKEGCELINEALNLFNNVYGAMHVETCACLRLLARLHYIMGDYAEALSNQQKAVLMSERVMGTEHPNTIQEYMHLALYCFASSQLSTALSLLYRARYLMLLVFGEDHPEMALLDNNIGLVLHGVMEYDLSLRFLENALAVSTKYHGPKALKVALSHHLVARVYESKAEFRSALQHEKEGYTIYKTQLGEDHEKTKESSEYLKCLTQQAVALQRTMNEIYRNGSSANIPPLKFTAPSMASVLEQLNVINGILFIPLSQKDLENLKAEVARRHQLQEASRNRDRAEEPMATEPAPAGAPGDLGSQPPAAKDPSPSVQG
Procedure, shortened: (§1)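 Read-out is TMT-based cysteine engagement, expressed as each reporter ion intensity divided by the average of the DMSO channels. Before that, probe-treated cell lysates were capped with IA-DTB, digested, enriched on streptavidin and TMT-tagged. PSMs with DMSO summed intensity <10,000 or DMSO CV >0.5 were excluded.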

GCN1_C1095 = biological target: T2, GCN1_C1095 (Homo sapiens, UniProt Q92616)
T2 construct: endogenous in cells; host or cells: 22Rv1
Procedure, shortened: as §1

TRPM4_C758 = biological target: T3, TRPM4_C758 (Homo sapiens, UniProt Q8TD43)
T3 construct: endogenous in cells; host or cells: 22Rv1
Procedure, shortened: as §1

T3 sequence (Q8TD43 whole entry): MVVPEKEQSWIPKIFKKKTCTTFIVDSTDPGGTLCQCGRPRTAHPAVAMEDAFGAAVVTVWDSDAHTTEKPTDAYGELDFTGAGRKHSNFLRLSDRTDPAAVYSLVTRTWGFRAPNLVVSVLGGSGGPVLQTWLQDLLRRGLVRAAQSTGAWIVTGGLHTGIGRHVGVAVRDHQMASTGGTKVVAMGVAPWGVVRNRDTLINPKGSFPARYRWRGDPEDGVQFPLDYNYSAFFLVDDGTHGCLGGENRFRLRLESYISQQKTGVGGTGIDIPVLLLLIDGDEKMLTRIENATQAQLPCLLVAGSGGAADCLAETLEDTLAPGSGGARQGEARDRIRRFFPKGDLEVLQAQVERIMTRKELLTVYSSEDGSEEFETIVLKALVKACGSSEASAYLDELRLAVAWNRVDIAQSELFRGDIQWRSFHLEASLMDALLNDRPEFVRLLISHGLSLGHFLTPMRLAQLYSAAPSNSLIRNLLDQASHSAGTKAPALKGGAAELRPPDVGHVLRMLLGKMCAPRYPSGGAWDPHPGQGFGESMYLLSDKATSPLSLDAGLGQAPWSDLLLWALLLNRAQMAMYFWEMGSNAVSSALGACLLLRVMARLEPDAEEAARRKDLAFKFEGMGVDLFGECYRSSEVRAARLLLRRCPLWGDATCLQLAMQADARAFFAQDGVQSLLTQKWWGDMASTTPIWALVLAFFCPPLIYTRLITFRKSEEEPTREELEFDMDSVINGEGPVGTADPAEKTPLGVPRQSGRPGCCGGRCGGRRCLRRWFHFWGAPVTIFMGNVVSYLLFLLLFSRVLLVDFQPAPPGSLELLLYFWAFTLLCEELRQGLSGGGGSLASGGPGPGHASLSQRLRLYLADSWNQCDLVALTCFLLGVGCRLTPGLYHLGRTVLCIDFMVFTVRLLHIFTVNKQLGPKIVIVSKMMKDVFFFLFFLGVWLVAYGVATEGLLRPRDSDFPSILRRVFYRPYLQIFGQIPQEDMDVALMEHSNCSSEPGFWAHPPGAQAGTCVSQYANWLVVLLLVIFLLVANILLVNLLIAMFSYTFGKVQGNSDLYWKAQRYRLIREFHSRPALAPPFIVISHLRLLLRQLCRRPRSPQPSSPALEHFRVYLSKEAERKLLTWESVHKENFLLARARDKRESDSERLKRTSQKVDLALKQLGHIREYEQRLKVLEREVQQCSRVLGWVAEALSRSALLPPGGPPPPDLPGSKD
T2 sequence (Q92616 whole entry): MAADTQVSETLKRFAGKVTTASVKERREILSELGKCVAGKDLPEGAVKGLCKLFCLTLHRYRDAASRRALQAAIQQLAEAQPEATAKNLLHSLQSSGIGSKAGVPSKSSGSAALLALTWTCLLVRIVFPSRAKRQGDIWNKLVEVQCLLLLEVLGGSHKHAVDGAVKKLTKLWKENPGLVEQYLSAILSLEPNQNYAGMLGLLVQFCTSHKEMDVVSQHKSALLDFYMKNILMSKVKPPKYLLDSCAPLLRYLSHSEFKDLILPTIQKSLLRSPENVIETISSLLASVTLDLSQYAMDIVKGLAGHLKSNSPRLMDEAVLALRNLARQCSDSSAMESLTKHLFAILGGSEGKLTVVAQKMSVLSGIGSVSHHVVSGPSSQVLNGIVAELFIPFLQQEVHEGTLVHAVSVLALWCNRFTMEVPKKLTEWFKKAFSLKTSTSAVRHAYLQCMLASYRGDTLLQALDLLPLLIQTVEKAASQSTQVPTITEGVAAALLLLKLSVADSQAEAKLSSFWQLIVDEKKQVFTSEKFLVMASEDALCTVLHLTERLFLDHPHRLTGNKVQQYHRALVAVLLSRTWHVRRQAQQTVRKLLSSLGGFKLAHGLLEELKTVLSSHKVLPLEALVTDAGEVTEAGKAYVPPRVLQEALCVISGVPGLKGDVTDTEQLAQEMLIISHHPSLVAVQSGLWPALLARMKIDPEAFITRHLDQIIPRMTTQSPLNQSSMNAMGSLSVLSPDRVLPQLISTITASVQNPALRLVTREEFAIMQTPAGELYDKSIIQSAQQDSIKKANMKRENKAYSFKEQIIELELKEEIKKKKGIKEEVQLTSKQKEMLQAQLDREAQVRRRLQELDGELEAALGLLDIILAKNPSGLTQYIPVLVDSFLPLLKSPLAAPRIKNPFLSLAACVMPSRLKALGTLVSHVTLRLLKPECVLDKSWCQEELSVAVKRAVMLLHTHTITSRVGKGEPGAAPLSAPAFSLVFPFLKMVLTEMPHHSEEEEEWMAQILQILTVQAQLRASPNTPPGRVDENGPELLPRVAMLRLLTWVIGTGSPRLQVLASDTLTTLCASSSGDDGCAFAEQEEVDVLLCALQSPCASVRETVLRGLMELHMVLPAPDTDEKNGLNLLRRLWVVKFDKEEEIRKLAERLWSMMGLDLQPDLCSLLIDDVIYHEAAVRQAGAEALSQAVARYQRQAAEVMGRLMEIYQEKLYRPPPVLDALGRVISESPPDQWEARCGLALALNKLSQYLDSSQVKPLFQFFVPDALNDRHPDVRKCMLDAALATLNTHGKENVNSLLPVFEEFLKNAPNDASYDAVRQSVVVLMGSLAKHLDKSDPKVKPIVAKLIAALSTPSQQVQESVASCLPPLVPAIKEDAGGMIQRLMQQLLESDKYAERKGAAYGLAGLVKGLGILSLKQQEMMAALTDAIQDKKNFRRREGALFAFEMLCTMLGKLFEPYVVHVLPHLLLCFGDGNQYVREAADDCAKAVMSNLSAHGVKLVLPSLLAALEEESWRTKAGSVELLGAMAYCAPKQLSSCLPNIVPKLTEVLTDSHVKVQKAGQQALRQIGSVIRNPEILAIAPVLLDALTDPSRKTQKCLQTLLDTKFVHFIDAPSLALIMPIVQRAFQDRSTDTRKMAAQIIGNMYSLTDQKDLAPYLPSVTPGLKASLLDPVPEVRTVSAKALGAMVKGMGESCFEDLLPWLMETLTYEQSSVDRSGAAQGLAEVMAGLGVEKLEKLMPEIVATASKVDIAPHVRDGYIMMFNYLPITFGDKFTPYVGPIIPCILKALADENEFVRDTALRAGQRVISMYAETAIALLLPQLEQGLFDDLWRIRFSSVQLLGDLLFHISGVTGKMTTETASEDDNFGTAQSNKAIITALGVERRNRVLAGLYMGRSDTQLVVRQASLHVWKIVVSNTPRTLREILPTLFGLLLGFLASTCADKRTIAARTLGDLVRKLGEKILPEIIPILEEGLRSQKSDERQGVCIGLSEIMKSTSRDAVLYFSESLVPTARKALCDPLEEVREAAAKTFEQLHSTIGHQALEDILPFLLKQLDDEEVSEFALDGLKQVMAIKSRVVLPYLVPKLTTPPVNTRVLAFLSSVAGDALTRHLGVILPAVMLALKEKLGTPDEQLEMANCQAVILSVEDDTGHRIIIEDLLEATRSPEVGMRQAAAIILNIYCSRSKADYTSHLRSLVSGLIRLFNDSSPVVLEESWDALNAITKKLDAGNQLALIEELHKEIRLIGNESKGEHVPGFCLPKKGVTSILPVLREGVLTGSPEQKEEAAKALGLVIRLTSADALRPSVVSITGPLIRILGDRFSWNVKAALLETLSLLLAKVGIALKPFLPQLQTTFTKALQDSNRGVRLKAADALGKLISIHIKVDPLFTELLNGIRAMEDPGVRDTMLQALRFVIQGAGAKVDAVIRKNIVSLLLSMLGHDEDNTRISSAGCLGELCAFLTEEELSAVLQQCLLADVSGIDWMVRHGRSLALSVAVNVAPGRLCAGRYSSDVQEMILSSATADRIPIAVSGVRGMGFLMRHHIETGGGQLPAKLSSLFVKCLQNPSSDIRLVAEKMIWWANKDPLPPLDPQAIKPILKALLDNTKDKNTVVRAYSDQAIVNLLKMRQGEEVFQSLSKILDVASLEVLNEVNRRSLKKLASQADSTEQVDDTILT

| % engagement CLUH_C333 (CLUH_C333) [%] | % engagement GCN1_C1095 (GCN1_C1095) [%] | Structure (SMILES) | % engagement TRPM4_C758 (TRPM4_C758) [%] |
| --- | --- | --- | --- |
| −4.5 | −7.5 | C=CC(=O)N1C[C@H](c2ccc(Br)cc2)[C@H]1C(=O)Nc1cccc2cccnc12 [MY-3B, (2S,3S)-1-acryloyl-3-(4-bromophenyl)-N-(quinolin-8-yl)azetidine-2-carboxamide] | 73.5 |
| 13 | 84 | C=CC(=O)N1C[C@H](c2ccc(Br)cc2)[C@@H]1C(=O)Nc1cccc2cccnc12 [MY-1B, (2R,3S)-1-acryloyl-3-(4-bromophenyl)-N-(quinolin-8-yl)azetidine-2-carboxamide] | 54.5 |
| 0.5 | 5 | C=CC(=O)N1C[C@H](c2ccc(Br)cc2)[C@H]1C(=O)Nc1cccc2cccnc12 [MY-3A, (2S,3S)-1-acryloyl-3-(4-bromophenyl)-N-(quinolin-8-yl)azetidine-2-carboxamide] | 29.5 |
| 81 | 18.5 | C=CC(=O)N1C[C@@H](c2ccc(Br)cc2)[C@H]1C(=O)Nc1cccc2cccnc12 [MY-1A, (2S,3R)-1-acryloyl-3-(4-bromophenyl)-N-(quinolin-8-yl)azetidine-2-carboxamide] | 40.5 |
